Biological target: STING (Homo sapiens, UniProt Q86WV6)
Assay: STING antagonist activity, cell-based ISG54 promoter-reporter luciferase measurement of IRF activity (THP-1 dual / RAW-ISG cells)
Conditions: Antagonist Activity of Exemplary Compounds; cell line and agonist not given; read-out: IC50
Description: THP-1 dual cells (InvivoGen) were cultured under 5% CO2 at 37° C. in RPMI containing 10% fetal bovine serum (FBS), 100 IU mL-1 penicillin and 100 μg mL-1 streptomycin. RAW-ISG cells (InvivoGen) were cultured under 5% CO2 at 37° C. in DMEM containing 10% fetal bovine serum (FBS), 100 IU mL-1 penicillin and 100 μg mL-1 streptomycin. THP-1 dual cells were seeded into the 96 well assay plate on the day of assay whereas RAW cells were seeded into the 96 well assay plate 18 hours before the assay.
(§1) 50,000 cells seeded in a 96-well flat bottom white assay plate were treated with different concentrations (10 uM to 0.01 uM) of compounds for 1 h followed by STING induction with either 30 nM SB 11285 or 10 ug/mL 2′-3′ cGAMP. The cells were then incubated for 20 hours @ 37° C. in CO2 incubator before measuring IRF activation by using Quanti-Luc (InvivoGen). The % inhibition was calculated as 100−{[(luminescence of COI treated well/luminescence of non-COI treated well)/100]×100}. IC50 was calculated by plotting in Xlfit.
as §1, with “1 μM” for “30 nM”
THP1-Dual-WT cells (InvivoGen) were plated into 96-well flat bottom plate at 5×10^4 cells/140 μL/well in triplicate. Cells were then treated with diluted antagonist compounds at 10 μL/well for 1 h, followed by treatment with compounds or 2′3′-cGAMP/lipo mixture for 18 h. The levels of IRF activity were determined using Quanti-luc (InvivoGen) and calculated against IRF activity in DMSO-treated cells. IC50 and CC50 values were calculated using Xlfit.

Chain of STING (Q86WV6 whole entry): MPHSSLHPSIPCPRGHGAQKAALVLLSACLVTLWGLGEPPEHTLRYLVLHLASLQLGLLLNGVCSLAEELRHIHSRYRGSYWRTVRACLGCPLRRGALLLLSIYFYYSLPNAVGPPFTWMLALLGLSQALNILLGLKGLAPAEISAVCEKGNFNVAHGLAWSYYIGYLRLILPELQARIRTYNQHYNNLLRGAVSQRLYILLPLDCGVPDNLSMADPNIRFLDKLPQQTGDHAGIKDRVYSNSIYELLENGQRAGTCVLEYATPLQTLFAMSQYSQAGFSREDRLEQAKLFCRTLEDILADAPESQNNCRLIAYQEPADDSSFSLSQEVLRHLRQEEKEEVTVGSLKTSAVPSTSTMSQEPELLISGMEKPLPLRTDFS

Work on COC(=O)CCCCCCCCCCCCCCCn1cnc2ncnc(Cl)c21 [Compound 1] yielded an IC50 of 1 to 5 µM.

Compound COC(=O)CCCCCCCCCCCCCCCn1cnc2nc(Cl)ncc21 [Compound 2] has an IC50 of 10 to 20 µM.

Work on COC(=O)CCCCCCCCCCCCCCCn1cnc2ncncc21 [Compound 3] yielded an IC50 greater than 20 µM.

For COC(=O)CCCCCCCCCCCCCCCn1ccc2nc(Cl)nc(Cl)c21 [Compound 4], the IC50 was greater than 20 µM.

For COC(=O)CCCCCCCCCCCCCCCn1cnc2nc(N)nc(Cl)c21 [Compound 5], the IC50 was 5 to 10 µM.

COC(=O)CCCCCCCCCCn1cnc2nc(Cl)nc(Cl)c21 [Compound 7] showed an IC50 of 0.001 to 1 µM.

Compound CCOC(=O)Cn1cnc2nc(Cl)nc(Cl)c21 [Compound 8] has an IC50 of 0.001 to 1 µM.

Compound COC(=O)CCCCCCCCCCCCCCCn1cnc2nc(Cl)nc(N)c21 [Compound 9, methyl (6-amino-2-chloro-7H-purin-7-yl)hexadecanoate] has an IC50 of 1 to 5 µM.

Work on O=C(O)CCCCCCCCCCCCCCCn1cnc2nc(Cl)nc(O)c21 [Compound 10, 16-(2-chloro-6-hydroxy-7H-purin-7-yl)hexadecanoic acid] yielded an IC50 greater than 20 µM.

Compound COC(=O)CCCCCCCCCCCCCCCn1cnc2nc(Cl)nc(O)c21 [Compound 11, methyl 16-(2-chloro-6-hydroxy-7H-purin-7-yl)hexadecanoate] has an IC50 of 10 to 20 µM.

With CCOC(=O)CCCCCCCn1cnc2nc(Cl)nc(Cl)c21 [Compound 12] the IC50 was 0.001 to 1 µM.

Compound COC(=O)CCCCCCn1cnc2nc(Cl)nc(Cl)c21 [Compound 13] has an IC50 of 0.001 to 1 µM.

CCCCCCCCCCCCCCC(C(=O)OCc1ccc(OC)cc1)n1cnc2c(Cl)nc(Cl)nc21 (stereo not drawn) [Compound 15, 4-methoxybenzyl 2-(2,6-dichloro-9H-purin-9-yl)hexadecanoate] showed an IC50 greater than 20 µM.

Work on CCCCCCCCCCCCCCC(C(=O)O)n1cnc2c(Cl)nc(Cl)nc21 (stereo not drawn) [Compound 16] yielded an IC50 of 10 to 20 µM.

CCCCCCCCCCCCCCC(C(=O)O)n1ccc2c(Cl)nc(Cl)nc21 (stereo not drawn) [Compound 17, 2-(2,4-dichloro-7H-pyrrolo[2,3-d]pyrimidin-7-yl)hexadecanoic acid] gave an IC50 greater than 20 µM.

In the case of CCCCCCCCC(C(=O)OCC)n1cnc2c(Cl)nc(Cl)nc21 (stereo not drawn) [Compound 18, ethyl 2-(2,6-dichloro-9H-purin-9-yl)decanoate], the IC50 is reported as 1 to 5 µM.

CCCCCCCCC(C(=O)O)n1cnc2c(Cl)nc(Cl)nc21 (stereo not drawn) [Compound 19, 2-(2,6-dichloro-9H-purin-9-yl)decanoic acid] was tested, and the IC50 was 5 to 10 µM.

For COC(=O)CCCCCCCCCCCCCCCn1cnc2c(NCCS(N)(=O)=O)nc(Cl)nc21 [Compound 21], the IC50 was 10 to 20 µM.

Work on COc1ccc(Cn2cnc3c(NCCCCCC(=O)O)nc(Cl)nc32)cc1 [Compound 22, 6-((2-chloro-9-(4-methoxybenzyl)-9H-purin-6-yl)amino)hexanoic acid] yielded an IC50 greater than 20 µM.

With CNc1nc(Cl)nc2ncn(CCCCCCCCCCCCCCCC(=O)OC)c12 [Compound 23, methyl 16-(2-chloro-6-(methylamino)-7H-purin-7-yl)hexadecanoate] the IC50 was greater than 20 µM.

In the case of COC(=O)CCCCCCCCCCCCCCCn1cnc2nc(Cl)nc(N(C)C)c21 [Compound 24, methyl 16-(2-chloro-6-(dimethylamino)-7H-purin-7-yl)hexadecanoate], the IC50 is reported as 1 to 5 µM.

For OCCCCCCCCCCCCCCCCn1cnc2nc(Cl)nc(Cl)c21 [Compound 25, 16-(2,6-dichloro-7H-purin-7-yl)hexadecan-1-ol], the IC50 was 0.001 to 1 µM.

For CCCCCCCCCCCCCCCCn1cnc2nc(Cl)nc(Cl)c21 [Compound 26, 2,6-dichloro-7-hexadecyl-7H-purine], the IC50 was 0.001 to 1 µM.

COC(=O)CCCCCCCCCCCCCCCn1cnc2ncnc(SC)c21 [Compound 27, methyl 16-(6-(methylthio)-7H-purin-7-yl)hexadecanoate] was tested, and the IC50 was 5 to 10 µM.

COC(=O)CCCCCCCCCCCCCCCn1cnc2ncnc(S(C)(=O)=O)c21 [Compound 28, methyl 16-(6-(methylsulfonyl)-7H-purin-7-yl)hexadecanoate] showed an IC50 of 0.001 to 1 µM.

COC(=O)CCCCCCCCCCCCCCCn1c(C)nc2nc(Cl)nc(Cl)c21 [Compound 29, methyl 16-(2,6-dichloro-8-methyl-7H-purin-7-yl)hexadecanoate] showed an IC50 of 0.001 to 1 µM.

In the case of O=C(O)CCCCCCCCCCCCCCCn1cnc2nc(Cl)nc(Cl)c21 [Compound 30, 16-(2,6-dichloro-7H-purin-7-yl)hexadecanoic acid], the IC50 is reported as 1 to 5 µM.

For COC(=O)CCCCCn1cnc2nc(Cl)nc(Cl)c21 [Compound 31, methyl 6-(2,6-dichloro-7H-purin-7-yl) hexanoate], the IC50 was 1 to 5 µM.

COC(=O)CCCCn1cnc2nc(Cl)nc(Cl)c21 [Compound 32, methyl 5-(2,6-dichloro-7H-purin-7-yl)pentanoate] was tested, and the IC50 was 1 to 5 µM.

Work on CC(=O)OCCCCCn1cnc2nc(Cl)nc(Cl)c21 [Compound 33, 5-(2,6-dichloro-7H-purin-7-yl)pentyl acetate] yielded an IC50 of 1 to 5 µM.

COC(=O)CCCCCCCCCCCCCCCn1c(C)nc2c(Cl)nc(Cl)nc21 [Compound 34, methyl 16-(2,6-dichloro-8-methyl-9H-purin-9-yl)hexadecanoate] gave an IC50 of 10 to 20 µM.

Clc1nc(Cl)c2c(ncn2CCCCCCCCCCCCn2cnc3nc(Cl)nc(Cl)c32)n1 [Compound 35, 1,12-bis(2,6-dichloro-7H-purin-7-yl) dodecane] showed an IC50 of 1 to 5 µM.

CCCCCCCCC(C(=O)OCC)n1cnc2nc(Cl)nc(Cl)c21 (stereo not drawn) [Compound 36, ethyl 2-(2,6-dichloro-7H-purin-7-yl) decanoate] was tested, and the IC50 was 1 to 5 µM.

COC(=O)CCCn1cnc2nc(Cl)nc(Cl)c21 [Compound 37, methyl 4-(2,6-dichloro-7H-purin-7-yl)butanoate] showed an IC50 of 5 to 10 µM.

COC(=O)CCCCCCCCCCCCCCCn1cnc2nc(F)nc(Cl)c21 [Compound 38, methyl 16-(6-chloro-2-fluoro-7H-purin-7-yl)hexadecanoate] was tested, and the IC50 was 1 to 5 µM.

In the case of COC(=O)CCCCCCCCCCCCCCCn1cnc2nc(Cl)nc(S(C)(=O)=O)c21 [Compound 39, methyl 16-(2-chloro-6-(methylsulfonyl)-7H-purin-7-yl) hexadecanoate], the IC50 is reported as greater than 20 µM.

With OCCCCCCCCCCn1cnc2nc(Cl)nc(Cl)c21 [Compound 40, 10-(2,6-dichloro-7H-purin-7-yl)decan-1-ol] the IC50 was 0.001 to 1 µM.

COC(=O)CCCCCCCCCCCCCCCn1cnc2nccc(Cl)c21 [Compound 41, methyl 16-(7-chloro-1H-imidazo[4,5-b]pyridin-1-yl) hexadecanoate] showed an IC50 greater than 20 µM.

Work on COC(=O)CCCCCCCCCCCCCCCn1cnc2c(Cl)ccnc21 [Compound 42, methyl 16-(7-chloro-3H-imidazo[4,5-b]pyridin-3-yl) hexadecanoate] yielded an IC50 greater than 20 µM.

For COC(=O)CCCCCCCCCCCCCCCn1cnc2ccnc(Cl)c21 [Compound 43], the IC50 was greater than 20 µM.

With COC(=O)CCCCCCCCCCCCCCCn1cnc2c(Cl)nccc21 [Compound 44] the IC50 was greater than 20 µM.

Work on OCCCCCCn1cnc2nc(Cl)nc(Cl)c21 [Compound 45, 6-(2,6-dichloro-7H-purin-7-yl)hexan-1-ol] yielded an IC50 of 1 to 5 µM.

For COC(=O)CCCCCCCCCCCCCCCn1cnc2nc(NC(C)=O)nc(Cl)c21 [Compound 46, methyl 16-(2-acetamido-6-chloro-7H-purin-7-yl) hexadecanoate], the IC50 was greater than 20 µM.

COC(=O)CCCCCCCCCCCCCCCn1cnc2c(Cl)nc(NC(C)=O)nc21 [Compound 47, methyl 16-(2-acetamido-6-chloro-9H-purin-9-yl)hexadecanoate] gave an IC50 greater than 20 µM.

Compound OCCOCCOCCOCCn1cnc2nc(Cl)nc(Cl)c21 [Compound 48, 2-(2-(2-(2-(2,6-dichloro-7H-purin-7-yl)ethoxy)ethoxy)ethoxy)ethan-1-ol] has an IC50 of 1 to 5 µM.

CC(C)n1cnc2nc(Cl)nc(Cl)c21 [Compound 49, 2,6-dichloro-7-isopropyl-7H-purine] showed an IC50 greater than 20 µM.

Compound COC(=O)CCCCCCCCCCCCCCCn1ccc2c(Cl)nc(Cl)nc21 [Compound 50, methyl 16-(2,4-dichloro-7H-pyrrolo[2,3-d]pyrimidin-7-yl)hexadecanoate] has an IC50 greater than 20 µM.

OCCOCCOCCOCCn1cnc2c(Cl)nc(Cl)nc21 [Compound 51, 2-(2-(2-(2-(2,6-dichloro-9H-purin-9-yl)ethoxy)ethoxy)ethoxy)ethan-1-ol] gave an IC50 greater than 20 µM.

COC(=O)CCCCCCCCCCCCCCCn1c(O)nc2nc(Cl)nc(Cl)c21 [Compound 52, methyl 16-(2,6-dichloro-8-oxo-8,9-dihydro-7H-purin-7-yl)hexadecanoate] gave an IC50 greater than 20 µM.

COC(=O)CCCCCCCCCCCCCCCn1c(O)nc2c(Cl)nc(Cl)nc21 [Compound 53, methyl 16-(2,6-dichloro-8-oxo-7,8-dihydro-9H-purin-9-yl)hexadecanoate] was tested, and the IC50 was greater than 20 µM.

Work on Clc1nc(Cl)c2c(ncn2C/C=C/Cn2cnc3nc(Cl)nc(Cl)c32)n1 [Compound 54, (E)-1,4-bis(2,6-dichloro-7H-purin-7-yl)but-2-ene] yielded an IC50 of 1 to 5 µM.

From patent publication US20220168309A1 (F-STAR THERAPEUTICS, INC., priority 2019, published 2022)
